Results as given in patent US20090182057A1, “DEUTERATED AMINOGLYCIDAL COMPOUNDS” (AUSPEX PHARMACEUTICALS, INC., priority 2006, published 2009).

Conditions: topical or ocular, 5 microgram per mL
Description: In Vitro Liver Microsomal Stability Assay
Liver microsomal stability assays are conducted at 1 mg per mL liver microsome protein with an NADPH-generating system in 2% NaHCO3 (2.2 mM NADPH, 25.6 mM glucose 6-phosphate, 6 units per mL glucose 6-phosphate dehydrogenase and 3.3 mM MgCl2). Test compounds are prepared as solutions in 20% acetonitrile-water, and added to the assay mixture (final assay concentration 5 microgram per mL) and incubated at 37° C. Final concentration of acetonitrile in the assay should be <1%. Aliquots (50 μL) are taken out at times 0, 15, 30, 45, and 60 min, and diluted with ice cold acetonitrile (200 μL) to stop the reactions. Samples are centrifuged at 12,000 RPM for 10 min to precipitate proteins. Supernatants are transferred to microcentrifuge tubes and stored for LC/MS/MS analysis of the degradation half-life of the test compounds.

Increase in the degradation half-life as compared to non-isotopically enriched metoprolol, 10-30%:
[2H]C([2H])(Cc1ccc(OCC(O)CNC(C)C)cc1)OC (stereo not shown) [d2-metoprolol, d2-1-Isopropylamino-3-[4-(2-methoxy-ethyl)-phenoxy]-propan-2-ol]
[2H]C([2H])([2H])OCCc1ccc(OCC(O)CNC(C)C)cc1 (stereo not shown) [d3-metoprolol, d3-1-Isopropylamino-3-[4-(2-methoxy-ethyl)-phenoxy]-propan-2-ol]
[2H]C([2H])([2H])OC([2H])([2H])Cc1ccc(OCC(O)CNC(C)C)cc1 (stereo not shown) [d5-metoprolol, d5-1-Isopropylamino-3-[4-(2-methoxy-ethyl)-phenoxy]-propan-2-ol]
[2H]C([2H])([2H])OC([2H])([2H])Cc1ccc(OC([2H])([2H])C([2H])(O)C([2H])([2H])NC(C([2H])([2H])[2H])C([2H])([2H])[2H])cc1 (stereo not shown) [d16-metoprolol, d16-1-Isopropylamino-3-[4-(2-methoxy-ethyl)-phenoxy]-propan-2-ol]
